Experimental data as given in patent publication US20050208496A1, “Methods of testing for bronchial asthma or chronic obstructive pulmonary disease” (Genox Research, Inc., priority 2002, published 2005).

Test system: respiratory epithelial cells

Substance: IL-13: human IL-13 (Peprotech, Inc.) added to the medium at 50 ng/mL to stimulate respiratory epithelial cells
- DD96 (31610_at) expression, fold change upon IL-13 stimulation (lot 1, Day 3, AI method): 6.3 fold
- DKFZP564O0823 (41402_at) expression, fold change upon IL-13 stimulation (lot 1, Day 3, AI method): 5 fold
- DKFZP566J091 (57197_at) expression fold change (lot 1, Day 3, AI method): 9.4 fold
- DKFZp564N1116 (37784_at) expression, fold change upon IL-13 stimulation (lot 1, Day 3, AI method): 6.4 fold
- DNAJA1 (276_at) expression fold change upon IL-13 stimulation (lot 1, Day 3, AI method): 2 fold
- DPYD (38220_at) expression fold change upon IL-13 stimulation (lot 1, Day 3, AI method): 2.7 fold
- EMILIN-2 (51628_at) expression fold change (lot 1, Day 3, AI method): 2.1 fold
- FABP4 (38430_at) expression, fold change upon IL-13 stimulation (lot 1, Day 3, AI method): 3.8 fold
- FBP1 (36495_at) expression fold change upon IL-13 stimulation (lot 1, Day 3, AI method): 3.2 fold
- FETUB (32620_at) expression fold change (lot 1, Day 3, AI method): 3.7 fold
- FETUB (33101_g_at) expression fold change (lot 1, Day 3, AI method): 2.2 fold
- FLJ10261 (43366_at) expression fold change (lot 1, Day 3, AI method): 7.9 fold
- FLJ22693 (53777_at) expression fold change (lot 1, Day 3, AI method): 2.8 fold
- FUT10 (908_at) expression fold change upon IL-13 stimulation (lot 1, Day 3, AI method): 5.8 fold
- G1P3 (1358_s_at) expression, fold change upon IL-13 stimulation (lot 1, Day 3, AI method): 7.1 fold
- GADD45G (39154_at) expression fold change upon IL-13 stimulation (lot 1, Day 3, AI method): 3.1 fold
- GBP5 (52615_at) expression fold change (lot 1, Day 3, AI method): 2.4 fold
- GS3686 (36927_at) expression, fold change upon IL-13 stimulation (lot 1, Day 3, AI method): 5.7 fold
- HAS3 (54604_at) expression fold change (lot 1, Day 3, AI method): 2.3 fold
- HDAC9 (37483_at) expression fold change upon IL-13 stimulation (lot 1, Day 3, AI method): 4.1 fold
- HLA-F (37420_i_at) expression, fold change upon IL-13 stimulation (lot 1, Day 3, AI method): 2.9 fold
- HLA-F (49203_f_at) expression fold change (lot 1, Day 3, AI method): 2.4 fold
- HS3ST1 (41556_s_at) expression fold change upon IL-13 stimulation (lot 1, Day 3, AI method): 3.4 fold
- ICAMt (32640_at) expression fold change upon IL-13 stimulation (lot 1, Day 3, AI method): 6.5 fold
- IFI27 (425_at) expression, fold change upon IL-13 stimulation (lot 1, Day 3, AI method): 3.8 fold
- IFI27 (48864_at) expression fold change (lot 1, Day 3, AI method): 2.9 fold
- IFI35 (464_s_at) expression, fold change upon IL-13 stimulation (lot 1, Day 3, AI method): 13.2 fold
- IFI44 (37641_at) expression, fold change upon IL-13 stimulation (lot 1, Day 3, AI method): 5.9 fold
- IFIT1 (915_at) expression, fold change upon IL-13 stimulation (lot 1, Day 3, AI method): 19.2 fold
- IFIT1 (32814_at) expression, fold change upon IL-13 stimulation (lot 1, Day 3, AI method): 10.6 fold
- IFIT4 (38584_at) expression, fold change upon IL-13 stimulation (lot 1, Day 3, AI method): 2.7 fold
- IFITM1 (675_at) expression, fold change upon IL-13 stimulation (lot 1, Day 3, AI method): 10.7 fold
- IL13RA2 (1016_s_at) expression fold change upon IL-13 stimulation (lot 1, Day 3, AI method): 10.2 fold
- IL19 (47855_at) expression fold change (lot 1, Day 3, AI method): 4 fold
- ILIRL1 (40322_at) expression, fold change upon IL-13 stimulation (lot 1, Day 3, AI method): 5.5 fold
- IRF7 (36412_s_at) expression fold change (lot 1, Day 3, AI method): 4.9 fold
- ISG15 (1107_s_at) expression, fold change upon IL-13 stimulation (lot 1, Day 3, AI method): 13.1 fold
- ISG15 (38432_at) expression, fold change upon IL-13 stimulation (lot 1, Day 3, AI method): 23.7 fold
- ISG20 (33304_at) expression, fold change upon IL-13 stimulation (lot 1, Day 3, AI method): 4.8 fold
- KIAA0537 (33787_at) expression, fold change upon IL-13 stimulation (lot 1, Day 3, AI method): 7.5 fold
- KIAA1268 (57050_at) expression fold change (lot 1, Day 3, AI method): 3.2 fold
- KIAAI268 (59516_at) expression fold change (lot 1, Day 3, AI method): 4.1 fold
- LAMP3 (37168_at) expression, fold change upon IL-13 stimulation (lot 1, Day 3, AI method): 6.3 fold
- LOC57118 (51085_at) expression fold change (lot 1, Day 3, AI method): 2.4 fold
- LOC64116 (40456_at) expression, fold change upon IL-13 stimulation (lot 1, Day 3, AI method): 2.2 fold
- MDA5 (51920_at) expression fold change (lot 1, Day 3, AI method): 6.6 fold
- MFHAS1 (50388_at) expression fold change (lot 1, Day 3, AI method): 2.3 fold
- MICB (35937_at) expression, fold change upon IL-13 stimulation (lot 1, Day 3, AI method): 3.3 fold
- MKP-L (38272_at) expression, fold change upon IL-13 stimulation (lot 1, Day 3, AI method): 2 fold
- MMP7 (668_s_at) expression, fold change upon IL-13 stimulation (lot 1, Day 3, AI method): 2.6 fold
- MX2 (879_at) expression fold change (lot 1, Day 3, AI method): 8.7 fold
- MXI (37014_at) expression fold change (lot 1, Day 3, AI method): 12.3 fold
- NCF2 (41038_at) expression fold change (lot 1, Day 3, AI method): 2.9 fold
- NK4 (39119_s_at) expression fold change upon IL-13 stimulation (lot 1, Day 3, AI method): 4 fold
- NOS2A (1948_f_at) expression fold change upon IL-13 stimulation (lot 1, Day 3, AI method): 5.3 fold
- NOS2A (48918_at) expression fold change (lot 1, Day 3, AI method): 4.3 fold
- OAF (39695_at) expression, fold change upon IL-13 stimulation (lot 1, Day 3, AI method): 3.4 fold
- OAS1 (38388_at) expression fold change upon IL-13 stimulation (lot 1, Day 3, AI method): 6.2 fold
- OAS1 (38389_at) expression fold change upon IL-13 stimulation (lot 1, Day 3, AI method): 4.5 fold
- OAS2 (39263_at) expression fold change upon IL-13 stimulation (lot 1, Day 3, AI method): 5 fold
- OSF-2 (1451_s_at) expression fold change upon IL-13 stimulation (lot 1, Day 3, AI method): 10.5 fold
- PHKB (46459_at) expression fold change (lot 1, Day 3, AI method): 2 fold
- PKD2 (38120_at) expression, fold change upon IL-13 stimulation (lot 1, Day 3, AI method): 2.8 fold
- PLOD2 (34795_at) expression fold change upon IL-13 stimulation (lot 1, Day 3, AI method): 2.3 fold
- PLS1 (39951_at) expression fold change (lot 1, Day 3, AI method): 2.5 fold
- PLSCR1 (32775_r_at) expression fold change upon IL-13 stimulation (lot 1, Day 3, AI method): 2.9 fold
- PSMB9 (38287_at) expression fold change upon IL-13 stimulation (lot 1, Day 3, AI method): 3.2 fold
- RIG-1 (59215_at) expression fold change (lot 1, Day 3, AI method): 7.2 fold
- SAMHD1 (34714_at) expression, fold change upon IL-13 stimulation (lot 1, Day 3, AI method): 3.4 fold
- SCYB10 (431_at) expression fold change upon IL-13 stimulation (lot 1, Day 3, AI method): 5.2 fold
- SCYB11 (35061_at) expression fold change upon IL-13 stimulation (lot 1, Day 3, AI method): 8.9 fold
- SECTM1 (41045_at) expression, fold change upon IL-13 stimulation (lot 1, Day 3, AI method): 6.5 fold
- SERPINB2 (37185_at) expression fold change (lot 1, Day 3, AI method): 2.1 fold
- SERPINB4 (1549_s_at) expression fold change (lot 1, Day 3, AI method): 4.2 fold
- SERPINB6 (34789_at) expression fold change (lot 1, Day 3, AI method): 2.2 fold
- SIAT1 (41352_at) expression fold change upon IL-13 stimulation (lot 1, Day 3, AI method): 4.7 fold
- SLC26A4, pendrin (36376_at) expression fold change (lot 1, Day 3, AI method): 18.8 fold
- SSI-1 (41592_at) expression, fold change upon IL-13 stimulation (lot 1, Day 3, AI method): 5.6 fold
- STAT1 (32860_g_at) expression fold change (lot 1, Day 3, AI method): 2.8 fold
- STAT1 (33338_at) expression fold change (lot 1, Day 3, AI method): 9.7 fold
- STAT1 (33339_g_at) expression fold change (lot 1, Day 3, AI method): 3.5 fold
- TGM2 (38404_at) expression fold change upon IL-13 stimulation (lot 1, Day 3, AI method): 8.5 fold
- THBS1 (115_at) expression fold change upon IL-13 stimulation (lot 1, Day 3, AI method): 10.4 fold
- TSPAN-3 (38612_at) expression, fold change upon IL-13 stimulation (lot 1, Day 3, AI method): 2.2 fold
- TXNRD1 (39425_at) expression fold change upon IL-13 stimulation (lot 1, Day 3, AI method): 2 fold
- UBE2L6 (40505_at) expression fold change upon IL-13 stimulation (lot 1, Day 3, AI method): 3.3 fold
- UFD1L (811_at) expression, fold change upon IL-13 stimulation (lot 1, Day 3, AI method): 2.3 fold
- WARS (38121_at) expression fold change upon IL-13 stimulation (lot 1, Day 3, AI method): 3.5 fold
- cig5 (38549_at) expression, fold change upon IL-13 stimulation (lot 1, Day 3, AI method): 10.1 fold
- diubiquitin (39959_at) expression, fold change upon IL-13 stimulation (lot 1, Day 3, AI method): 21.3 fold
- AA149682 (51925_at) expression fold change (lot 1, Day 3, IMM method): 2.4 fold
- AA541787 (52622_at) expression fold change (lot 1, Day 3, IMM method): 2.6 fold
- ADAM28 (35479_at) expression, fold change upon IL-13 stimulation (lot 1, Day 3, IMM method): 4.8 fold
- AI565105 (54886_at) expression fold change (lot 1, Day 3, IMM method): 2.2 fold
- AI659927 (54033_at) expression fold change (lot 1, Day 3, IMM method): 8.3 fold
- AI989346 (52327_s_at) expression fold change (lot 1, Day 3, IMM method): 2.3 fold
- ALOX15 (34636_at) expression, fold change upon IL-13 stimulation (lot 1, Day 3, IMM method): 69.2 fold
- ARL7 (57151_at) expression fold change (lot 1, Day 3, IMM method): 3.2 fold
- AW019985 (48826_s_at) expression fold change (lot 1, Day 3, IMM method): 6 fold
- BAL (52167_at) expression fold change (lot 1, Day 3, IMM method): 3.6 fold
- BRCA1 (626_s_at) expression fold change (lot 1, Day 3, IMM method): 7.6 fold
- BST2 (39061_at) expression, fold change upon IL-13 stimulation (lot 1, Day 3, IMM method): 8.3 fold
- C21orf11 (58957_at) expression fold change (lot 1, Day 3, IMM method): 6.2 fold
- CDH6 (1620_at) expression fold change upon IL-13 stimulation (lot 1, Day 3, IMM method): 4.2 fold
- CDH6 (57421_at) expression fold change (lot 1, Day 3, IMM method): 4.7 fold
- CDH26 (46916_at) expression fold change (lot 1, Day 3, IMM method): 16 fold
